# Tests used:
# Test in all cases: in vitro antibacterial evaluation, MIC by broth dilution
# Type in all cases: cell-based
# Enterococcus sp. = details: broth dilution, 18 hours at 35° C.; for MIC Enterococcus faecalis (ATCC 29212): strain ATCC 29212; for MIC Enterococcus faecalis (GC 2242): strain GC 2242; for MIC Enterococcus faecium (GC 2243): strain GC 2243; for MIC Enterococcus faecalis (GC 2691): strain GC 2691; for MIC Enterococcus faecalis (GC 3059): strain GC 3059; for MIC Enterococcus faecalis (GC 4552): strain GC 4552; for MIC Enterococcus faecalis (GC 4553): strain GC 4553; for MIC Enterococcus faecalis (GC 4554): strain GC 4554; for MIC Enterococcus faecium (GC 4556): strain GC 4556; for MIC Enterococcus faecium (GC 4557): strain GC 4557; for MIC Enterococcus avium (GC 4558): strain GC 4558; for MIC Enterococcus faecalis (GC 6189): strain GC 6189
# Experimental: (§1) Methods for in vitro Antibacterial Evaluation (Table 1)
# (§2) The minimum inhibitory concentration (MIC), the lowest concentration of the antibiotic which inhibits growth of the test organism, is determined by the broth dilution method using Muller-Hinton II […] (Baltimore Biological Laboratories) following the recommendations of the National Committee for Clinical Laboratory Standards [Methods for dilution antimicrobial susceptibility tests for bacteria that grow aerobically, approved standard M7-A2, National Committee for Clinical Laboratory Standards, Villanova, Pa.].
# (§3) An inoculum level of 5×10^5 CFU/mL, and a range of antibiotic concentrations (64-0.06 μg/mL) is used. […] The test organisms include a spectrum of Gram-positive bacteria comprised of Staphylococcus sp., Streptococcus sp. and Enterococcus sp. These organisms include recent clinical isolates that are resistant to methicillin, penicillin and/or vancomycin.
# Staphylococcus sp. = details: broth dilution, 18 hours at 35° C.; for MIC Staphylococcus aureus (ATCC 29213): strain ATCC 29213; for MIC Staphylococcus aureus (GC 1131): strain GC 1131; for MIC Staphylococcus aureus (GC 3051): strain GC 3051; for MIC Staphylococcus aureus (GC 3053): strain GC 3053; for MIC Staphylococcus aureus (GC 4541): strain GC 4541; for MIC Staphylococcus aureus (GC 4542): strain GC 4542; for MIC Staphylococcus aureus-SMITH (GC 4543): strain GC 4543; for MIC Staphylococcus aureus (GC 4544): strain GC 4544; for MIC Staphylococcus aureus (GC 4545): strain GC 4545; for MIC Staphylococcus haemolyticus (GC 4546): strain GC 4546; for MIC Coagulase Negative Staphylococcus (GC 4547): strain GC 4547; for MIC Coagulase Negative Staphylococcus (GC 4548): strain GC 4548; for MIC Coagulase Negative Staphylococcus (GC 4549): strain GC 4549; for MIC Coagulase Negative Staphylococcus (GC 4551): strain GC 4551; for MIC Coagulase Negative Staphylococcus (GC 6257): strain GC 6257
# Experimental: as §1, §2, §3
# Streptococcus sp. = details: broth dilution, 18 hours at 35° C.; for MIC Streptococcus pneumoniae (ATCC 6301): strain ATCC 6301; for MIC Streptococcus pneumoniae (GC 1894): strain GC 1894; for MIC Streptococcus pyogenes (GC 4563): strain GC 4563; for MIC Streptococcus agalactiae (GC 4564): strain GC 4564; for MIC Streptococcus pneumoniae (GC 4565): strain GC 4565
# Experimental: as §1, §2, §3
# Escherichia coli = details: broth dilution, 18 hours at 35° C.; for MIC Escherichia coli (ATCC 25922): strain ATCC 25922; for MIC Escherichia coli (GC 4559): strain GC 4559; for MIC Escherichia coli (GC 4560): strain GC 4560
# Outline: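 Broth dilution in Muller-Hinton II medium per NCCLS standard M7-A2, with an inoculum of 5×10^5 CFU/mL and antibiotic tested over 64-0.06 μg/mL. MIC was taken as the lowest concentration inhibiting visible growth.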
MIC Enterococcus faecalis (ATCC 29212) (Enterococcus sp.),MIC Enterococcus faecalis (GC 2242) (Enterococcus sp.),MIC Enterococcus faecium (GC 2243) (Enterococcus sp.),MIC Enterococcus faecalis (GC 2691) (Enterococcus sp.),MIC Enterococcus faecalis (GC 3059) (Enterococcus sp.),MIC Enterococcus faecalis (GC 4552) (Enterococcus sp.),MIC Enterococcus faecalis (GC 4553) (Enterococcus sp.),MIC Enterococcus faecalis (GC 4554) (Enterococcus sp.),MIC Enterococcus faecium (GC 4556) (Enterococcus sp.),MIC Enterococcus faecium (GC 4557) (Enterococcus sp.),MIC Enterococcus avium (GC 4558) (Enterococcus sp.),MIC Enterococcus faecalis (GC 6189) (Enterococcus sp.),MIC Staphylococcus aureus (ATCC 29213) (Staphylococcus sp.),MIC Staphylococcus aureus (GC 1131) (Staphylococcus sp.),MIC Staphylococcus aureus (GC 3051) (Staphylococcus sp.),MIC Staphylococcus aureus (GC 3053) (Staphylococcus sp.),MIC Staphylococcus aureus (GC 4541) (Staphylococcus sp.),MIC Staphylococcus aureus (GC 4542) (Staphylococcus sp.),MIC Staphylococcus aureus-SMITH (GC 4543) (Staphylococcus sp.),MIC Staphylococcus aureus (GC 4544) (Staphylococcus sp.),SMILES,other results
8 µg/mL,8 µg/mL,4 µg/mL,8 µg/mL,16 µg/mL,8 µg/mL,8 µg/mL,8 µg/mL,16 µg/mL,2 µg/mL,4 µg/mL,8 µg/mL,4 µg/mL,2 µg/mL,8 µg/mL,4 µg/mL,2 µg/mL,2 µg/mL,2 µg/mL,2 µg/mL,"CC(c1ccccc1)C1NC(=O)CNC(=O)C(CO)NC(=O)C(CC2CNC(=N)N2C2OC(CO)C(O)C(O)C2O)NC(=O)C(CC2CNC(=N)N2)NC(=O)C(Cc2ccc3oc(-c4ccc5c(c4)Cc4ccccc4-5)nc3c2)NC1=O (stereo not drawn) [Example 42, Cyclo[3-[2-(9H-fluoren-2-yl)-1,3-benzoxazol-5-yl]alanyl-3-(2-iminoimidazolidin-4-yl)alanyl-3-(3-hexopyranosyl-2-iminoimidazolidin-4-yl)alanylserylglycyl-β-methylphenylalanyl]]",MIC Staphylococcus aureus (GC 4545) (Staphylococcus sp.): 2 µg/mL; MIC Staphylococcus haemolyticus (GC 4546) (Staphylococcus sp.): 2 µg/mL; MIC Coagulase Negative Staphylococcus (GC 4547) (Staphylococcus sp.): 2 µg/mL; MIC Coagulase Negative Staphylococcus (GC 4548) (Staphylococcus sp.): 1 µg/mL; MIC Coagulase Negative Staphylococcus (GC 4549) (Staphylococcus sp.): 1 µg/mL; MIC Coagulase Negative Staphylococcus (GC 4551) (Staphylococcus sp.): 4 µg/mL; MIC Coagulase Negative Staphylococcus (GC 6257) (Staphylococcus sp.): 1 µg/mL; MIC Streptococcus pneumoniae (ATCC 6301) (Streptococcus sp.): 8 µg/mL; MIC Streptococcus pneumoniae (GC 1894) (Streptococcus sp.): 16 µg/mL; MIC Streptococcus pyogenes (GC 4563) (Streptococcus sp.): 4 µg/mL; MIC Streptococcus agalactiae (GC 4564) (Streptococcus sp.): 8 µg/mL; MIC Streptococcus pneumoniae (GC 4565) (Streptococcus sp.): 16 µg/mL; MIC Escherichia coli (ATCC 25922) (Escherichia coli): 32 µg/mL; MIC Escherichia coli (GC 4559) (Escherichia coli): 32 µg/mL; MIC Escherichia coli (GC 4560) (Escherichia coli): 1 µg/mL
32 µg/mL,16 µg/mL,16 µg/mL,32 µg/mL,32 µg/mL,16 µg/mL,16 µg/mL,16 µg/mL,32 µg/mL,4 µg/mL,8 µg/mL,16 µg/mL,8 µg/mL,8 µg/mL,8 µg/mL,8 µg/mL,16 µg/mL,8 µg/mL,8 µg/mL,8 µg/mL,"CC(c1ccccc1)C1NC(=O)CNC(=O)C(CO)NC(=O)C(C(O)C2CNC(=N)N2C2OC(CO)C(O)C(O)C2O)NC(=O)C(C(O)C2CNC(=N)N2)NC(=O)C(Cc2ccc3oc(SCc4ccccc4)nc3c2)NC1=O (stereo not drawn) [Example 45, Cyclo[3-[2-(benzylthio)-1,3-benzoxazol-5-yl]alanyl-3-(2-iminoimidazolidin-4-yl)seryl-3-(3-hexopyranosyl-2-iminoimidazolidin-4-yl)serylserylglycyl-β-methylphenylalanyl]]",MIC Staphylococcus aureus (GC 4545) (Staphylococcus sp.): 8 µg/mL; MIC Staphylococcus haemolyticus (GC 4546) (Staphylococcus sp.): 4 µg/mL; MIC Coagulase Negative Staphylococcus (GC 4547) (Staphylococcus sp.): 4 µg/mL; MIC Coagulase Negative Staphylococcus (GC 4548) (Staphylococcus sp.): 8 µg/mL; MIC Coagulase Negative Staphylococcus (GC 4549) (Staphylococcus sp.): 4 µg/mL; MIC Coagulase Negative Staphylococcus (GC 4551) (Staphylococcus sp.): 8 µg/mL; MIC Coagulase Negative Staphylococcus (GC 6257) (Staphylococcus sp.): 4 µg/mL; MIC Streptococcus pneumoniae (ATCC 6301) (Streptococcus sp.): 16 µg/mL; MIC Streptococcus pneumoniae (GC 1894) (Streptococcus sp.): 16 µg/mL; MIC Streptococcus pyogenes (GC 4563) (Streptococcus sp.): 4 µg/mL; MIC Streptococcus agalactiae (GC 4564) (Streptococcus sp.): 16 µg/mL; MIC Streptococcus pneumoniae (GC 4565) (Streptococcus sp.): 32 µg/mL; MIC Escherichia coli (ATCC 25922) (Escherichia coli): 16 µg/mL; MIC Escherichia coli (GC 4559) (Escherichia coli): 16 µg/mL; MIC Escherichia coli (GC 4560) (Escherichia coli): 4 µg/mL
8 µg/mL,4 µg/mL,4 µg/mL,32 µg/mL,32 µg/mL,16 µg/mL,4 µg/mL,64 µg/mL,8 µg/mL,4 µg/mL,2 µg/mL,32 µg/mL,16 µg/mL,32 µg/mL,32 µg/mL,16 µg/mL,16 µg/mL,16 µg/mL,8 µg/mL,16 µg/mL,CC(c1ccccc1)C1NC(=O)CNC(=O)C(CO)NC(=O)C(C(O)C2CNC(=N)N2C2OC(CO)C(O)C(O)C2O)NC(=O)C(C(O)C2CNC(=N)N2)NC(=O)C(Cc2ccc3oc(SCc4ccc(-c5ccccc5)cc4)nc3c2)NC1=O (stereo not drawn) [Example 47],MIC Staphylococcus aureus (GC 4545) (Staphylococcus sp.): 16 µg/mL; MIC Staphylococcus haemolyticus (GC 4546) (Staphylococcus sp.): 8 µg/mL; MIC Coagulase Negative Staphylococcus (GC 4547) (Staphylococcus sp.): 16 µg/mL; MIC Coagulase Negative Staphylococcus (GC 4548) (Staphylococcus sp.): 2 µg/mL; MIC Coagulase Negative Staphylococcus (GC 4549) (Staphylococcus sp.): 0.5 µg/mL; MIC Coagulase Negative Staphylococcus (GC 4551) (Staphylococcus sp.): 8 µg/mL; MIC Streptococcus pneumoniae (ATCC 6301) (Streptococcus sp.): 4 µg/mL; MIC Streptococcus pneumoniae (GC 1894) (Streptococcus sp.): 2 µg/mL; MIC Streptococcus pyogenes (GC 4563) (Streptococcus sp.): 1 µg/mL; MIC Streptococcus agalactiae (GC 4564) (Streptococcus sp.): 2 µg/mL; MIC Streptococcus pneumoniae (GC 4565) (Streptococcus sp.): 8 µg/mL; MIC Escherichia coli (ATCC 25922) (Escherichia coli): >64 µg/mL; MIC Escherichia coli (GC 4559) (Escherichia coli): >64 µg/mL; MIC Escherichia coli (GC 4560) (Escherichia coli): 32 µg/mL

SMILES,MIC Enterococcus faecalis (ATCC 29212) (Enterococcus sp.),MIC Enterococcus faecalis (GC 2242) (Enterococcus sp.),MIC Enterococcus faecium (GC 2243) (Enterococcus sp.),MIC Enterococcus faecalis (GC 2691) (Enterococcus sp.),MIC Enterococcus faecalis (GC 3059) (Enterococcus sp.),MIC Enterococcus faecalis (GC 4552) (Enterococcus sp.),MIC Enterococcus faecalis (GC 4553) (Enterococcus sp.),MIC Enterococcus faecalis (GC 4554) (Enterococcus sp.),MIC Enterococcus faecium (GC 4556) (Enterococcus sp.),MIC Enterococcus faecium (GC 4557) (Enterococcus sp.),MIC Enterococcus avium (GC 4558) (Enterococcus sp.),MIC Enterococcus faecalis (GC 6189) (Enterococcus sp.),MIC Staphylococcus aureus (ATCC 29213) (Staphylococcus sp.),MIC Staphylococcus aureus (GC 1131) (Staphylococcus sp.),MIC Staphylococcus aureus (GC 3051) (Staphylococcus sp.),MIC Staphylococcus aureus (GC 3053) (Staphylococcus sp.),MIC Staphylococcus aureus (GC 4541) (Staphylococcus sp.),MIC Staphylococcus aureus (GC 4542) (Staphylococcus sp.),MIC Staphylococcus aureus-SMITH (GC 4543) (Staphylococcus sp.),MIC Staphylococcus aureus (GC 4544) (Staphylococcus sp.),other results
CC(c1ccccc1)C1NC(=O)CNC(=O)C(CO)NC(=O)C(C(O)C2CNC(=N)N2C2OC(CO)C(O)C(O)C2O)NC(=O)C(C(O)C2CNC(=N)N2)NC(=O)C(Cc2ccc3oc(SCc4ccc5ccccc5c4)nc3c2)NC1=O (stereo not drawn) [Example 46],8 µg/mL,8 µg/mL,4 µg/mL,16 µg/mL,32 µg/mL,8 µg/mL,4 µg/mL,16 µg/mL,16 µg/mL,8 µg/mL,4 µg/mL,16 µg/mL,8 µg/mL,8 µg/mL,8 µg/mL,8 µg/mL,8 µg/mL,8 µg/mL,4 µg/mL,8 µg/mL,MIC Staphylococcus aureus (GC 4545) (Staphylococcus sp.): 8 µg/mL; MIC Staphylococcus haemolyticus (GC 4546) (Staphylococcus sp.): 8 µg/mL; MIC Coagulase Negative Staphylococcus (GC 4547) (Staphylococcus sp.): 4 µg/mL; MIC Coagulase Negative Staphylococcus (GC 4548) (Staphylococcus sp.): 8 µg/mL; MIC Coagulase Negative Staphylococcus (GC 4549) (Staphylococcus sp.): 2 µg/mL; MIC Coagulase Negative Staphylococcus (GC 4551) (Staphylococcus sp.): 4 µg/mL; MIC Streptococcus pneumoniae (ATCC 6301) (Streptococcus sp.): 8 µg/mL; MIC Streptococcus pneumoniae (GC 1894) (Streptococcus sp.): 8 µg/mL; MIC Streptococcus pyogenes (GC 4563) (Streptococcus sp.): 1 µg/mL; MIC Streptococcus agalactiae (GC 4564) (Streptococcus sp.): 8 µg/mL; MIC Streptococcus pneumoniae (GC 4565) (Streptococcus sp.): 8 µg/mL; MIC Escherichia coli (ATCC 25922) (Escherichia coli): 64 µg/mL; MIC Escherichia coli (GC 4559) (Escherichia coli): 64 µg/mL; MIC Escherichia coli (GC 4560) (Escherichia coli): 16 µg/mL
